Read-outs that look alike come from different tables or passages of the source.
Columns and labels:
[1] = system: c-MYC expression in L363 cells; assay: Inhibition of c-MYC expression in L363 cells (Peggy); type: cell-based, human; conditions: Homo sapiens, L-363, L363 cells, at 10 μM; read-out: Peggy (% c-Myc expression compared to untreated)
From the text: FIG. 10 illustrates an exemplary procedure for generating analogs of Compound 1. The amine group of Compound 1 can be varied in reductive aminations to provide additional analogs. […] The table also provides an indication of an exemplary commercial source for the compounds, or (if applicable) an indication that the compound is new.

786-0 = assay: NCI-60 cell growth (SRB); type: cell-based; conditions: 786-0, Renal Cancer; 10 μM, 48 hours
Experimental: (§1) This example illustrates that Compounds 1 and 23 can be used in inhibit the growth of c-Myc expressing cancer cell lines in vitro. The NCI-60 panel of cancer cell lines (see Shoemaker, Nat. Rev. Cancer, 6, 813-823, 2006, and dtp.cancer.gov/discovery_development/nci-60/) was assayed for cell growth in the presence of 10 μM Compound 1 or Compound 23 for 48 hours. At 48 hours, the assay was terminated by fixation with TCA and determination of relative cell counts by addition of Sulforhodamine B (SRB, see Alley et al., Cancer Research, 48: 589-601, 1988.). Growth percent was determined by comparison of SRB reading of a duplicate plate of cells taken at the time of compound addition to the SRB reading at the termination of the treatment. The following table provides a summary of the percent of growth of each cell line in the panel compared to control (no treatment), as well as the mean delta and range of percent growth compared to control across the panel of cell lines for each treatment condition.

[2] = system: NCI-60 panel of cancer cell lines; assay: NCI-60 cell growth (SRB), summary across the panel; type: cell-based; conditions: 10 μM, 48 hours; for Growth Percent, Delta: delta across the panel; for Growth Percent, Mean: mean across the panel; for Growth Percent, Range: range across the panel
Experimental: as §1

myeloma cells = assay: Senescence in myeloma cells; type: cell-based, human; conditions: 10 μM, after 72 hours
[3] = system: RB1, VEGFA, KRAS, HIF1α, BCL2 expression in L363 cells; assay: Gene expression analysis (Nanostring, qPCR), other G4-associated genes; type: cell-based, human; conditions: for expression of other G-quadruplex containing genes (qPCR): L363 cells
Experimental: Gene expression analysis was performed on a panel of 770 cancer-associated genes in a multiplexed (nanostring) transcriptional assay. In addition to c-MYC itself, several c-Myc target genes were included in the panel, as were a number of other quadruplex-driven genes. […] Additionally, a third data set was collected comparing Compound 1 treatment to JQ-1 (a BET-bromodomain inhibitor) and quarfloxin (another quadruplex-binding small molecule).
The effects of Compound 1 on a number of known quadruplex-driven genes in the panel were examined further (FIG. 6). Expression levels of MYC, RB1, VEGFA, KRAS, and HIF1α, all of which are reported to be under the control of promoter G4s, and are expressed in L363 cells, were included in the panel of genes evaluated by Nanostring as discussed above. […] These changes in gene expression are in line with biophysical measurements of compound affinity. Corresponding data showing similar results is presented for Compounds 1 and 23 in FIGS. 14A and 14B. […] These observations further highlight the ability of Compound 1 and Compound 23 to specifically target the expression of c-Myc and related pathways.
The phenotype for c-MYC genetic knockdown in multiple myeloma was achieved through lentiviral transduction of shRNA for c-MYC, derived from the spinoculation of 293T cells and plasmids grown in STBL3 E. coli, and isolated with the Qiagen Plasmid Midi Kit. Aliquots of the plasmids were generously provided by Art Shaffer. RNA of treated myeloma cells at designated time points was isolated with the Qiagen RNeasy kit, and used with the nCounter Human Cancer Reference Kit (NanoString Technologies), surveying changes in expression for […] cancer-related human genes and 6 reference genes. Quantitative changes in expression were analyzed and grouped in the form of a heat map using the programming language, R. All other quantitative statistical packing was performed in GraphPad Prism.

L363 cells = assay: L363 cell viability (MTS); type: cell-based, human; conditions: Homo sapiens
Experimental: Since two thirds of multiple myeloma cases involve deregulated c-MYC expression (Kuehl and Bergsagel, Blood 2012, 120, 2351; Shou, et al., Proc Natl Acad Sci USA 2000, 97, 228), we elected to evaluate the cell viability effects of Compound 1 in a multiple myeloma model. […] This suppression was maintained over 72 hours, which is notable given the characteristic rapid replenishment of the protein—a phenomenon that complicates targeting c-Myc at the protein level (FIG. 4C). This effect was maintained across a genetically diverse set of 4 multiple myeloma lines. We observed decreases in c-MYC translation in all lines tested, and this effect also correlated with decreases in viability (FIG. 4D).
Human multiple myeloma and Burkitt's Lymphoma cell lines L363, CA46, MM-1R, KMS-11, and MM-1S were cultured and authenticated as previously described (Simmons, et al., Molecular oncology 2014, 8, 261). All plasma derived cell lines were cultured in RPMI-1640 (2 mM L-glutamine, 10% fetal bovine serum (FBS), 100 U/ml penicillin, 100 μg/ml streptomycin: Gibco) and incubated at 37° C. with 5% CO2. Viability experiments were performed in quadruplicate on 96-well plates (Costar) at designated time and dose points. MTS reagent was then directly added, incubated at 37° C. for 90 min, and absorbance of MTS formazan was read at 500 nm on an Omega 640 spectrophotometer. Percentage cell viability was normalized to the absorbance of untreated (DMSO) wells. In the case of cells harvested for their protein or RNA, pellets were flash frozen and stored at −80° C. overnight prior to use. […]

[4] = system: mutant sequence incapable of G4 formation; type: biochemical; conditions: concentrations up to 100 μM
[5] = 48 hours, 10 μM BRACO-19, 10 μM Compound 1, 7.5 μM Compound 23
[6] = L-363, viability of L363 cells, read-out: IC50

Structure (SMILES)	activity at 10 µM [1]	Growth Percent (786-0)	Growth Percent, Delta [2]	Growth Percent, Mean [2]	Growth Percent, Range [2]	senescent state (myeloma cells)	expression of other G4-associated genes (nanostring) ([3]; 10 μM, 2 h to 48 h)	expression of other genes (qPCR) ([3]; 5, 10 or 12.5 μM, 48 hours)	expression of other G-quadruplex containing genes (qPCR) [3, 5]	IC50 (L363 cells; L-363, 72 h, after 72 hours, read-out: IC50 myeloma cell viability)	IC50 (L363 cells; [6])	effect on PCR amplification [4]	expression of other G-quadruplex containing genes (qPCR) ([3]; 5 μM, 24 or 48 hours)	IC50 (L363 cells; L-363, L363, read-out: IC50)
Cc1ccc(NC(=O)c2c(C)oc3ccc(O)c(CN4CCCCCC4)c23)cc1 [Compound 1]	50%	84.68%	32.50%	88.39%	60.47%	triggered a senescent state	minimally affected	minimally affected	minimally affecting expression of other G-quadruplex containing genes	7.6 ± 1.1 µM	7.6 µM	no effect		
Cc1oc2ccc(O)c(CN3CCCCCC3)c2c1C(=O)Nc1ccc(C(F)(F)F)cc1 [Compound 23]	0.44%	49.50%	67.00%	58.56%	94.23%				minimally affecting expression of other G-quadruplex containing genes		3.6 µM		minimally affecting expression of other G-quadruplex containing genes	3.64 µM

From patent publication US11014902B2, “MYC G-quadruplex stabilizing small molecules and their use” (The United States of America, as represented by the …, priority 2015, dated 2021)
